Our source for the IC50, Dmax and DC50 values is patent US20230158157A1, “POTENT AND SELECTIVE DEGRADERS OF ALK” (DANA-FARBER CANCER INSTITUTE, INC., priority 2020, published 2023).

For assay [1], the system named is H3122 cells. Nature of the assay: CTG. It is filed as cell-based.
Assay [2] concerns the target T1, EML4-ALK (Homo sapiens, UniProt Q9UM73).
T1 construct: endogenous in cells; host or cells: H3122 (NSCLC), single-cell clone after CRISPR knock-in of HiBit; the other entry of the earlier key: EML4 (Q9HC35, Echinoderm microtubule-associated protein-like 4)
Nature of the assay: EML4-ALK HiBit degradation assay in CRISPR-tagged H3122 cells (Nano-Glo HiBit Lytic Detection). It is filed as cell-based. As to the method:
NSCLC cell line H3122 was subjected to CRISPR to express EML4-ALK with HiBit-tag on its c-terminal. Single-cell clone was selected and expanded for the following assays that monitor endogenous EML4-ALK level in high throughput manner. Cells were seeded in 384-well white Tissue-culture plates at 3000 cells/well for 8 hours. […] HiBit signal was assessed using Nano-Glo® HiBit Lytic Detection System (Promega™). Degrader-treated was normalized by DMSO-treated controls and DC50 and Dmax were generated by GraphPad Prism® 8.0.
NSCLC cell line H3122 was subjected to CRISPR to express EML4-ALK with HiBit-tag on its c-terminus. A single-cell clone was selected and expanded for the following assays that monitor endogenous EML4-ALK level in high throughput manner. Cells were seeded in 384-well white Tissue-culture plates at 3000 cells/well for 8 hours. […] HiBit signal was assessed using Nano-Glo® HiBit Lytic Detection System (Promega™). Degrader-treated cells were normalized by DMSO-treated controls and DC50 and Dmax were generated by GraphPad Prism® 8.0.
NSCLC cell line H3122 was subjected to CRISPR to express EML4-ALK with HiBit-tag on its C-terminus. A single-cell clone was selected and expanded for the following assays that monitor endogenous EML4-ALK level in high throughput manner. Cells were seeded in 384-well white Tissue-culture plates at 3000 cells/well for 8 hours. […] HiBit signal was assessed using Nano-Glo® HiBit Lytic Detection System (Promega™). Degrader-treated cells were normalized by DMSO-treated controls and DC50 and Dmax were generated by GraphPad Prism® 8.0.
For orientation: The HiBiT peptide binds its large partner to form an active luciferase.

Where [3] appears, read: Homo sapiens, NCI-H3122, Table 1, read-out: CTG IC50.
Setting [4] is: NCI-H3122, Table 1, first Dmax column, H3122 EML4-ALK-HiBit, 16 hours, read-out: Degradation Dmax.
The mark [5] stands for this setting: NCI-H3122, Table 1, average Dmax, read-out: Degradation Avg. Dmax.
[6] abbreviates: Table 1, first DC50 column, H3122 EML4-ALK-HiBit, 16 hours, read-out: Degradation DC50.
Setting [7] is: Table 1, average DC50, read-out: Degradation Avg. DC50.
[8] abbreviates: Homo sapiens, NCI-H3122, Table 2, read-out: CTG IC50.
The mark [9] stands for this setting: NCI-H3122, Table 2, first Dmax column, H3122 EML4-ALK-HiBit, 16 hours, read-out: Degradation Dmax.
Where [10] appears, read: NCI-H3122, Table 2, average Dmax, read-out: Degradation Avg. Dmax.
Where [11] appears, read: Table 2, first DC50 column, H3122 EML4-ALK-HiBit, 16 hours, read-out: Degradation DC50.
Setting [12] is: Table 2, average DC50, read-out: Degradation Avg. DC50.
[13] abbreviates: Table 1, second DC50 column, H3122 EML4-ALK-HiBit, 16 hours, read-out: Degradation DC50.
The mark [14] stands for this setting: NCI-H3122, Table 2, second Dmax column, H3122 EML4-ALK-HiBit, 16 hours, read-out: Degradation Dmax.
The mark [15] stands for this setting: Table 2, second DC50 column, H3122 EML4-ALK-HiBit, 16 hours, read-out: Degradation DC50.

Structures are written as SMILES. Read-outs that look alike come from different tables or passages of the source.

T1 sequence (Q9UM73 with tags, fused parts or gaps): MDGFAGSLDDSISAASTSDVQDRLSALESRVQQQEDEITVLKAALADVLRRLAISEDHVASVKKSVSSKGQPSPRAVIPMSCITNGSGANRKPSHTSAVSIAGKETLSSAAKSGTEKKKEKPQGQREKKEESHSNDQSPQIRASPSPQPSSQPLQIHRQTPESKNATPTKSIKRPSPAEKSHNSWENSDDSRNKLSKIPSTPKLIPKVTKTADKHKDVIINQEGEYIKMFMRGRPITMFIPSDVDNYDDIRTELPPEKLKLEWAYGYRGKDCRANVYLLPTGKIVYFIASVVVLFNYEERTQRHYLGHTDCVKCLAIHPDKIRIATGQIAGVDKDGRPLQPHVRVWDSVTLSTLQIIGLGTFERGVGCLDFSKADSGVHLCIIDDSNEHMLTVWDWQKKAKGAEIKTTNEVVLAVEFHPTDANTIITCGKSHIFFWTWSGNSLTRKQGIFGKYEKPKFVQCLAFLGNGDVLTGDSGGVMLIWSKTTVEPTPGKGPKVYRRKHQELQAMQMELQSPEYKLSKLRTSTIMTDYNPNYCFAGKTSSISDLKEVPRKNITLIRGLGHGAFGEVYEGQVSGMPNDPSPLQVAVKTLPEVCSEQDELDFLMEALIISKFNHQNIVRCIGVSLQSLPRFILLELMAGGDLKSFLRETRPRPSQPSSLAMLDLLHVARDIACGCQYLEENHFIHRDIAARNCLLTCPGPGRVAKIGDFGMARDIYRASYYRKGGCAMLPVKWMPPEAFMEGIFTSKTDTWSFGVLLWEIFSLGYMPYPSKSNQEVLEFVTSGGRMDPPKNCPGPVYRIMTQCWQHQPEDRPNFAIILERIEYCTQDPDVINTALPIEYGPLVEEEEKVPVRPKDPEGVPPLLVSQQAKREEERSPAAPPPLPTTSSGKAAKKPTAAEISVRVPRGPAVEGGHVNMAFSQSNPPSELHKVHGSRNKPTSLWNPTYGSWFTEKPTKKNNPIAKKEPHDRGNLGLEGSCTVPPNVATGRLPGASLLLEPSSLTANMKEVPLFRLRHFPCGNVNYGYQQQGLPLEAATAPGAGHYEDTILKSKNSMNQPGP

A word on the IC50: it is the midpoint of a concentration-inhibition curve. In general, Dmax refers to the largest share of the target that was removed. What is called DC50 is the midpoint of the concentration-degradation curve. Turning to `COc1cc(CCN(C)C(=O)CCCNc2cccc3c2C(=O)N(C2CCC(=O)NC2=O)C3=O)c(C)cc1Nc1ncc(Cl)c(Nc2ccccc2S(=O)(=O)C(C)C)n1` (centres unmarked) [compound 1], the IC50 in assay [1] (setting [3]) is 44.8 nM. The Dmax came out at 25.8% in assay [2] (setting [4]) and 23.8% in assay [2] (setting [5]). Moreover, the half-maximal degradation concentration (DC50) in assay [2] (setting [6]) and in assay [2] (setting [7]) was 32 nM each time.
For the compound `COc1cc(CCN(C)C(=O)CCCCCNc2cccc3c2C(=O)N(C2CCC(=O)NC2=O)C3=O)c(C)cc1Nc1ncc(Cl)c(Nc2ccccc2P(C)(C)=O)n1` (centres unmarked) [Compound 65], in assay [1] (setting [8]), the IC50 turned out to be 1100 nM. Also, the Dmax in assay [2] (setting [9]) and in assay [2] (setting [10]) was 26.2% in each case. Moreover, the DC50 in assay [2] (setting [11]) and in assay [2] (setting [12]) was 2560 nM throughout.
For the compound `COc1cc(CCN(C)C(=O)CCCCCCCCNc2cccc3c2C(=O)N(C2CCC(=O)NC2=O)C3=O)c(C)cc1Nc1ncc(Cl)c(Nc2ccccc2S(=O)(=O)C(C)C)n1` (centres unmarked) [compound 3, N-(4-((5-chloro-4-((2-(isopropylsulfonyl)phenyl)amino)pyrimidin-2-yl)amino)-5-methoxy-2-methylphenethyl)-9-((2-(2,6-dioxopiperidin-3-yl)-1,3-dioxoisoindolin-4-yl)amino)-N-methylnonanamide], the IC50 in assay [1] (setting [3]) was 136 nM. Moreover, in assay [2] (NCI-H3122, Table 1, second Dmax column, H3122 EML4-ALK-HiBit, 16 hours, read-out: Degradation Dmax), the Dmax was 38.4%. Moreover, the DC50 in assay [2] (setting [13]) turned out to be 346 nM.
As to `COc1cc(CCNCCCCCC(=O)N[C@H](C(=O)N2C[C@H](O)C[C@H]2C(=O)N[C@@H](C)c2ccc(-c3scnc3C)cc2)C(C)(C)C)c(C)cc1Nc1ncc(Cl)c(Nc2ccccc2S(=O)(=O)C(C)C)n1` [Compound 44], in assay [1] (setting [3]), the concentration for half-maximal inhibition (IC50) was found to be 252 nM. Moreover, the Dmax in assay [2] (setting [4]) and in assay [2] (setting [5]) was 53% each time. In addition, the DC50 in assay [2] (setting [6]) and in assay [2] (setting [7]) was 1250 nM in each case.
For the compound `COc1cc(CCN(C)C(=O)CCCCCNC(=O)COc2cccc3c2C(=O)N(C2CCC(=O)NC2=O)C3=O)c(C)cc1Nc1ncc(Cl)c(Nc2ccccc2P(C)(C)=O)n1` (centres unmarked) [Compound 58], in assay [1] (setting [8]), the IC50 is above 10000 nM.
`COc1cc(CCN(C)C(=O)CCCCCC#Cc2cccc3c2C(=O)N(C2CCC(=O)NC2=O)C3=O)c(C)cc1Nc1ncc(Cl)c(Nc2ccccc2S(=O)(=O)C(C)C)n1` (centres unmarked) [compound 10, N-(4-((5-chloro-4-((2-(isopropylsulfonyl)phenyl)amino)pyrimidin-2-yl)amino)-5-methoxy-2-methylphenethyl)-8-(2-(2,6-dioxopiperidin-3-yl)-1,3-dioxoisoindolin-4-yl)-N-methyloct-7-ynamide]: the 50% inhibitory concentration (IC50) in assay [1] (setting [3]) amounted to 125 nM. Also, the Dmax in assay [2] (setting [4]) and in assay [2] (setting [5]) was 43.4% each time. Moreover, the half-maximal degradation concentration (DC50) in assay [2] (setting [6]) and in assay [2] (setting [7]) was 203 nM in each case.
As to `COc1cc(CCN(C)C(=O)CCCNc2cccc3c2C(=O)N(C2CCC(=O)NC2=O)C3=O)c(C)cc1Nc1ncc(Cl)c(Nc2ccccc2P(C)(C)=O)n1` (centres unmarked) [Compound 64], the IC50 in assay [1] (setting [8]) turned out to be 301 nM.
Same read-out and setting: then `COc1cc(CCN(C)C(=O)CCCCCCC(=O)N[C@H](C(=O)N2C[C@H](O)CC2C(=O)N[C@@H](C)c2ccc(-c3scnc3C)cc2)C(C)(C)C)c(C)cc1Nc1ncc(Cl)c(Nc2ccccc2P(C)(C)=O)n1` (stereo partly drawn) [compound 70, N^1-(4-((5-chloro-4-((2-(dimethylphosphoryl)phenyl)amino)pyrimidin-2-yl)amino)-5-methoxy-2-methylphenethyl)-N^8-((S)-1-((2S,4R)-4-hydroxy-2-(((S)-1-(4-(4-methylthiazol-5-yl)phenyl)ethyl)carbamoyl)pyrrolidin-1-yl)-3,3-dimethyl-1-oxobutan-2-yl)-N′-methyloctanediamide], with 371 nM.
As for `COc1cc(CCNCCCC(=O)N[C@H](C(=O)N2C[C@H](O)C[C@H]2C(=O)N[C@@H](C)c2ccc(-c3scnc3C)cc2)C(C)(C)C)c(C)cc1Nc1ncc(Cl)c(Nc2ccccc2P(C)(C)=O)n1` [Compound 72], the IC50 in assay [1] (setting [8]) stood at 2950 nM. Further, the Dmax in assay [2] (setting [9]), in assay [2] (setting [14]) and in assay [2] (setting [10]) was 37.9% each time. Also, the DC50 turned out to be 8820 nM in assay [2] (setting [11]), 3590 nM in assay [2] (setting [15]) and 6200 nM in assay [2] (setting [12]).
As to `COc1cc(CCN(C)CCCCCNc2cccc3c2C(=O)N(C2CCC(=O)NC2=O)C3=O)c(C)cc1Nc1ncc(Cl)c(Nc2ccccc2S(=O)(=O)C(C)C)n1` (centres unmarked) [Compound 50], the IC50 in assay [1] (Table 1, read-out: CTG IC50) amounted to 20.6 nM. Also, the half-maximal degradation concentration (DC50) in assay [2] (setting [6]) amounted to 57 nM; in assay [2] (setting [13]), 24 nM; in assay [2] (setting [7]) it was 41 nM.
Take `COc1cc(CCN(C)C(=O)CCCNC(=O)COc2cccc3c2C(=O)N(C2CCC(=O)NC2=O)C3=O)c(C)cc1Nc1ncc(Cl)c(Nc2ccccc2P(C)(C)=O)n1` (centres unmarked) [Compound 57]: the IC50 in assay [1] (Table 2, read-out: CTG IC50) is above 10000 nM. Also, the DC50 in assay [2] (setting [11]) and in assay [2] (setting [12]) was 9340 nM each time.
In the case of `CC[C@@H](NC(=O)[C@@H]1C[C@H](NC(=O)CCCCCCCC(=O)N(C)CCc2cc(OC)c(Nc3ncc(Cl)c(Nc4ccccc4P(C)(C)=O)n3)cc2C)CN1C(=O)[C@@H](NC(=O)[C@H](C)NC)C(C)(C)C)c1ccccc1` [compound 75, N^1-(4-((5-chloro-4-((2-(dimethylphosphoryl)phenyl)amino)pyrimidin-2-yl)amino)-5-methoxy-2-methylphenethyl)-N^9-((3S,5S)-1-((S)-3,3-dimethyl-2-((S)-2-(methylamino)propanamido)butanoyl)-5-(((R)-1-phenylpropyl)carbamoyl)pyrrolidin-3-yl)-N^1-methylnonanediamide], the Dmax in assay [2] (setting [9]) was 42.1%. For the same compound, the DC50 in assay [2] (setting [11]) is 381 nM.
Regarding `COc1cc(CCN(C)C(=O)CCOCCOCCNC(=O)COc2cccc3c2C(=O)N(C2CCC(=O)NC2=O)C3=O)c(C)cc1Nc1ncc(Cl)c(Nc2ccccc2P(C)(C)=O)n1` (centres unmarked) [Compound 60], the IC50 in assay [1] (Table 2, read-out: CTG IC50) is above 10000 nM.
As to `COc1cc(CCNCCCCCC#Cc2cccc3c2C(=O)N(C2CCC(=O)NC2=O)C3=O)c(C)cc1Nc1ncc(Cl)c(Nc2ccccc2S(=O)(=O)C(C)C)n1` (centres unmarked) [compound 49, 4-(7-((4-((5-chloro-4-((2-(isopropylsulfonyl)phenyl)amino)pyrimidin-2-yl)amino)-5-methoxy-2-methylphenethyl)amino)hept-1-yn-1-yl)-2-(2,6-dioxopiperidin-3-yl)isoindoline-1,3-dione], the IC50 was 96.3 nM in assay [1] (Homo sapiens, NCI-H3122, read-out: CTG IC50) and 66.9 nM in assay [1] (setting [3]).
On to `CC[C@@H](NC(=O)[C@@H]1C[C@H](NC(=O)CCCCCCC(=O)N(C)CCc2cc(OC)c(Nc3ncc(Cl)c(Nc4ccccc4P(C)(C)=O)n3)cc2C)CN1C(=O)[C@@H](NC(=O)[C@H](C)NC)C(C)(C)C)c1ccccc1` [Compound 74], for which the greatest degradation seen (Dmax) in assay [2] (setting [9]) came to 47.1%; in assay [2] (setting [14]) it was 47.2%; in assay [2] (setting [10]) it was 47.1%. For the same compound, the DC50 in assay [2] (setting [11]) was found to be 506 nM; in assay [2] (setting [15]) it was 480 nM; in assay [2] (setting [12]), 490 nM.
With `COc1cc(CCN(C)C(=O)CCCCCCCC(=O)N[C@H](C(=O)N2C[C@H](O)C[C@H]2C(=O)N[C@@H](C)c2ccc(-c3scnc3C)cc2)C(C)(C)C)c(C)cc1Nc1ncc(Cl)c(Nc2ccccc2P(C)(C)=O)n1` [compound 69, N^1-(4-((5-chloro-4-((2-(dimethylphosphoryl)phenyl)amino)pyrimidin-2-yl)amino)-5-methoxy-2-methylphenethyl)-N^9-((S)-1-((2S,4R)-4-hydroxy-2-(((S)-1-(4-(4-methylthiazol-5-yl)phenyl)ethyl)carbamoyl)pyrrolidin-1-yl)-3,3-dimethyl-1-oxobutan-2-yl)-N^1-methylnonanediamide], in assay [1] (setting [8]), the IC50 was 477 nM.
On to `COc1cc(CCN(C)C(=O)CCOCCOCCNc2cccc3c2C(=O)N(C2CCC(=O)NC2=O)C3=O)c(C)cc1Nc1ncc(Cl)c(Nc2ccccc2P(C)(C)=O)n1` (centres unmarked) [Compound 67], for which the IC50 in assay [1] (setting [8]) came to 2290 nM.
